Assay results from US12478677B2, “Tunable luminescent organic salts for enhanced imaging and photodynamic therapy” (BOARD OF TRUSTEES OF MICHIGAN STATE UNIVERSITY, priority 2017, dated 2025).
“Also recorded” adds a separate entry of the source. Where two headings read alike, the source gives them in different places.

Legend:
[1] = Salt integrity and aggregation in cell media (mass spectrometry, electron microscopy, UV-Vis); type: physicochemical; conditions: high resolution mass spectrometry, electron microscopy, UV-Vis spectroscopy
Source text: FIGS. 7A-7C. […] Organic salts were first dissolved in DMSO and then diluted in water, forming nanoparticles. […] Combinations of H- and J-aggregation of organic salts can be seen by blue-shifted peaks (lower wavelength) and red-shifted peaks (higher wavelength), respectively. The nanoparticles with small hard anions redissolve in cell media likely due to sterics. […] This is achieved by cation-anion pairs of luminescent organic salts that can be modulated to be either non-toxic for enhanced imaging, or phototoxic for improved PDT. […] IR polymethine cyanine dyes, which have been used as effective theranostics are described. […] This is thought to occur through a mechanism mitigated by tumor vascularization, increased retention in cancer cells, and mitochondrial depolarization. Once in the cell, they accumulate in the mitochondria and lysosomes, where irradiation induces generation of cytotoxic oxygen species. A strategy is described for preventing or inhibiting salt dissociation in cells: aggregates are formed via introduction of the salt into an aqueous media by a solvent vehicle, forming particles with diameters of about 5 nm in size with no precipitation observed. […] This is confirmed by high resolution mass spectrometry, electron microscopy, and UV-Vis spectroscopy. […] Normalized absorption data are sown in FIGS. 7A, 7B, and 7C. This is likely due to steric effects, where if the counterion radius is too small it is not able to protect the nanoparticle stability. This can be characterized by the volume-averaged effective spherical radius of the counterions, where the cutoff is at about 0.275 nm.

mitochondrial superoxide = assay: MitoSOX measurement of mitochondrial superoxide; type: cell-based, human; conditions: A549 cells treated 4 days at phototoxic concentrations; with or without light
Source text: FIG. 22. Luminescent organic salts generate mitochondrial ROS. […] MitoSOX is used to measure mitochondrial superoxide, and H2DCFDA for general cytoplasmic ROS in A549 cell treated with organic salts at indicated phototoxic concentrations for 4 days.
Photoactive agents accumulate in the mitochondria of cancer cells and generate reactive oxygen species (ROS) with light exposure, depolarizing the mitochondrial membrane potential to cause cell death. Small molecule protective agents that quench ROS have been used to decrease their phototoxicity. However, the exact type of ROS generated by each luminescent agent remains unclear. Photo-induced ROS include singlet oxygen, superoxide radical anion, hydrogen peroxide, hydroxyl radical and others (see FIG. 21). Superoxide is a highly reactive and biologically toxic species deployed in nature to kill invading organisms. It is often formed as a byproduct of mitochondrial respiration but is typically quenched by the highly efficient superoxide dismutase. Hydroxyl radicals are also highly reactive, damaging nearly all forms of biological molecules. Unlike superoxide radical, the hydroxyl radical cannot be easily quenched naturally via enzymes, and endogenous antioxidants are typically required. Singlet oxygen is the excited state of the common triplet oxygen (O2 ground state) and is highly reactive towards organic compounds. Singlet oxygen can be eliminated in mammalian systems by antioxidants. A range of nitroxy radicals can subsequently stem from superoxide (peroxynitrite) or peroxide (nitrogen dioxide) species. […] Each luminescent cation-anion pair generates specific ROS resonant with its own energy level, and cell types can be targeted by generating the key sensitizing ROS. For example, it is expected that CyFPhB is phototoxic (see FIGS. 11A and 11B and 12A and 12B) by generating reactive oxygen species, which can be resonant with its molecular orbital energy levels (FIG. 21). […] No cytoplasmic ROS is detected using general cytoplasmic ROS probe H2DCFDA. […]

A549 cells = assay: Viability studies (trypan blue staining and cell counting) with or without IR excitation; type: cell-based, human; conditions: for IC50: linear regression analysis; for Toxicity in words, dark and light: with or without IR (850 nm) excitation; for Concentration at which still non-toxic: cells
Procedure: The cell lines human lung carcinoma (A549), metastatic human melanoma (WM1158) and Vemurafenib-resistant melanoma (Sk-Mel-28-Vem^R) are used. Sk-Mel-28-Vem^R is generated by culturing a parental melanoma cell lines in the presence of 2 μM Vemurafenib for 2 months. Acquired Vemurafenib resistance is defined by >1 log change in IC50 between nonresistant and resistant cell lines. Resistance is maintained through media supplementation with 2 μM Vemurafenib, which is changed every 48 hours. All cells are cultured in DMEM without pyruvate with 10% heat inactivated fetal bovine serum supplemented with glutamine and penicillin/streptomycin, and incubated in 37° C. with 5% CO2.
A549 and WM1158 cells are seeded at a density of 50,000 cells per well in 6-well tissue culture plates. After 24 hours of incubation, media is aspirated and replaced with media containing luminescent dyes at indicated concentrations. Each well is irradiated with an 850 nm LED lamp with an illumination rate of 526 mW/cm^2 for an hour in the incubator, and control cells are left in a dark incubator without irradiation. For studies with Cy7, a 740 nm LED lamp is used instead of an 850 nm, but with a similar illumination flux. Immediately after irradiation, the media is replenished with fresh dye-laced media and allowed to incubate for another 24 hours. […] Viable cell number is determined at 24 and 96 hours using trypan blue staining and a Nexcelom Cellometer Auto T4 cell counter. All assays are done with 3 biological replicates. The fold change in cell proliferation over days of treatment was calculated using the following equation.

CCN1C(=CC=C2CCCC(C=CC3=[N+](CC)c4ccc5ccccc5c4C3(C)C)=C2Cl)C(C)(C)c2c1ccc1ccccc21.Fc1c(F)c(F)c([B-](c2c(F)c(F)c(F)c(F)c2F)(c2c(F)c(F)c(F)c(F)c2F)c2c(F)c(F)c(F)c(F)c2F)c(F)c1F [CyTPFB]
Integrity of salt pairing in cellular environments [1]: maintained in cellular environments
Mitochondrial superoxide / ROS generation (MitoSOX), in words (mitochondrial superoxide): generating minimal ROS even with light at high concentrations; also recorded: generating minimal superoxide even with light
IC50 (A549 cells; A549 cells, 850 nm irradiation, read-out: IC50 850 nm): 11 µM
Phototoxicity with IR excitation, in words (A549 cells; A549 cells, IR (850 nm) excitation): non phototoxic to orders of magnitude higher concentrations
IC50 (A549 cells; A549 cells, dark, no irradiation, read-out: IC50 Dark): 126 µM
Fold concentration relative to CyPF6 at which still non-toxic (A549 cells; A549 cells, listed as Cy^+ paired with TPFB^−): greater than 75 fold
Toxicity in words, dark and light (A549 cells; A549 cells): non-toxic
Toxicity in words, dark and light (A549 cells; A549 cells, listed as Cy^+ paired with TPFB): not toxic to cells in the dark and in the light
Toxicity in the dark, in words (A549 cells; A549 cells, without IR excitation): deactivates the dark cellular toxicity
Concentration at which still non-toxic (A549 cells): 20 µM
Concentration at which still non-toxic (A549 cells; listed as Cy^+ paired with TPFB^−): 126 µM
